Earlier results as cited in US8734864B2, “Methods for increasing human growth hormone levels” (Quality IP Holdings, LLC, priority 2012, dated 2014).

Tests used:
hGH secretion = conditions: for Increase in hGH (in words): other amino acids, literature
[1] = subcutaneous injection of 0.06 IU, GH deficient subjects

Row | Molecule | Increase in hGH (in words) (hGH secretion) | further results
1 | N[C@@H](Cc1ccccc1)C(=O)O [phenylalanine] | marked increases in hGH | –
2 | NCCC[C@H](N)C(=O)O [ornithine] | marked increases in hGH | –
3 | N[C@@H](Cc1c[nH]cn1)C(=O)O [histidine] | marked increases in hGH | –
4 | HGH: human growth hormone given by subcutaneous injection to GH deficient subjects (literature) | – | Mean levels of GH reached [1]: 0.4 ng/mL
5 | CSCC[C@H](N)C(=O)O [methionine] | marked increases in hGH | –
6 | NCCCC[C@H](N)C(=O)O [lysine] | marked increases in hGH | –
7 | N=C(N)NCCC[C@H](N)C(=O)O [arginine] | – | Elevation of serum hGH levels (hGH secretion; 30 g, males): 8.6 fold; Increase of hGH levels (hGH secretion; intravenous infusion of 183 mg/kg body weight, females): > 20 fold
